From patent publication US12673946B2, “Pyrimidin-4(3H)-one derivatives as TRPV4 antagonists” (RaQualia Pharma Inc., priority 2020, dated 2026)

Target: T1, human TRPV4 (Homo sapiens, UniProt Q9HBA0)
T1 construct: host or cells: tetracycline-inducible Flp-In T-REx 293 cells
Assay: Hypotonicity-induced Ca2+ influx (Fluo-4, FDSS)
Assay type: cell-based
Method: Hypotonicity-Induced Ca^2+ Influx
TRPV4 channel activation/opening results in an influx of Ca^2+ (Liedtke, W. et al., 2000 (NPL 1)). The resulting changes in intracellular calcium are monitored using a Ca^2+ sensitive fluorescent dye Fluo-4 (Invitrogen). Dye loaded cells are treated with the test compounds for 5 minutes prior to the addition of a hypotonic solution and the inhibition of the hypotonicity-induced activation is recorded.
Forty microL of tetracycline-inducible Flp-In T-REx 293 cells (Invitrogen) stably expressing human TRPV4 are seeded onto the poly-D-lysine coated 384-well plate (Corning) at a density of 10,000 cells per well. The following day, TRPV4 expression is induced by adding 0.5 microg/mL tetracycline for 20-24 hours. On the day of the experiment, the media is removed and replaced with 40 microL of dye loading buffer [1 microM Fluo-4 AM (Invitrogen), 0.01% Pluronic F-127, and 20 mM HEPES in Hanks' balanced salt solutions (HBSS; Invitrogen)] and then the cells are incubated for 60 minutes at 25° C. Dye is then removed and replaced with 20 microL of assay buffer (20 mM HEPES in HBSS). Five minutes prior to the fluorescence measurement, 10 microL of test compound is added to the cells. Using the FDSS instrument (Hamamatsu Photonics), 30 microL of hypotonic solution (90 mM D-mannitol and 1.26 mM CaCl2 in ultrapure water) is added 30 seconds after the start of measurement. The calcium flux signal is recorded for a total of 4.5 minutes.

[1] = Flp-In T-REx 293 cells expressing human TRPV4, examples listed under heading 'Human IC50<50 nM'
[2] = Flp-In T-REx 293 cells stably expressing human TRPV4, compounds listed by potency bin (<10 nM Tables 96-1/96-2, <3 nM Table 97)

T1 sequence (Q9HBA0 whole entry): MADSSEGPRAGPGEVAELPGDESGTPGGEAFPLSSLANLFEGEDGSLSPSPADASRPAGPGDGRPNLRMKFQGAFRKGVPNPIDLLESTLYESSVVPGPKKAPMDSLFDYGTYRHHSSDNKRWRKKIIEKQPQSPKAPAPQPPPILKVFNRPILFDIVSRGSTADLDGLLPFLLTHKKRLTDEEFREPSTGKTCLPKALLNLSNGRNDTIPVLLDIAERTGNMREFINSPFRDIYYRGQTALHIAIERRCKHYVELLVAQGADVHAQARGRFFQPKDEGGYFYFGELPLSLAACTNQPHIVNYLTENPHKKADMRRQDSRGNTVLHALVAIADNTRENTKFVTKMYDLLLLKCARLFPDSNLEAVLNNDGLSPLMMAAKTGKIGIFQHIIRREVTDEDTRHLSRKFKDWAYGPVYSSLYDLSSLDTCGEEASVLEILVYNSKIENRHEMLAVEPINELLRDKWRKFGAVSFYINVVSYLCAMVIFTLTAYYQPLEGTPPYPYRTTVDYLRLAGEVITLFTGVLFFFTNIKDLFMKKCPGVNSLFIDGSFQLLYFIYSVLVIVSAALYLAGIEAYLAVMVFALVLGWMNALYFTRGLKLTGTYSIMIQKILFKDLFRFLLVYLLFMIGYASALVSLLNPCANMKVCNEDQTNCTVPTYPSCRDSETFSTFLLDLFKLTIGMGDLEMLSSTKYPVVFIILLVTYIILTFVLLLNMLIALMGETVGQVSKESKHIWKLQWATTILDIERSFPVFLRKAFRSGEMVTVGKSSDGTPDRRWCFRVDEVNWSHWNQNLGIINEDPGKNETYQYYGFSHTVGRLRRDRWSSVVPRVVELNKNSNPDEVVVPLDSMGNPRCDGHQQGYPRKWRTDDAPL

Row | Structure (SMILES) | IC50 [1] | IC50 [2]
1 | Cc1cc(C)cc(-c2cccc([C@@H](O)C(=O)N3CCc4nc(C5(c6ccccc6)CC5)[nH]c(=O)c4C3)c2)c1 [44-113] | < 0.05 µM | –
2 | O=C([C@H](O)c1cccc(Cl)c1)N1CCc2nc(C3(c4cccs4)CC3)[nH]c(=O)c2C1 [6-7] | < 0.05 µM | –
3 | O=C([C@H](O)c1cccc(C(F)(F)F)c1)N1CCCc2nc(C3(c4cccc(-c5nc6ccccc6s5)c4)CC3)[nH]c(=O)c2C1 [17-97] | < 0.05 µM | < 0.01 µM
4 | O=C(C(O)c1cccc(-c2cccc(C(F)(F)F)c2)c1F)N1CCc2nc(C3(c4ccccc4)CC3)[nH]c(=O)c2C1 (centres unmarked) [44-22] | < 0.05 µM | –
5 | O=C(C(O)c1cccc(-c2cccc(C(F)(F)F)c2)c1)N1CCCc2nc(C3(c4cncc(-c5ccccc5)c4)CC3)[nH]c(=O)c2C1 (centres unmarked) [56-2] | < 0.05 µM | < 0.003 µM
6 | O=C([C@H](O)c1cccc(C(F)(F)F)c1)N1CCCc2nc(C3(c4cccc(-c5ccc(F)c(F)c5)c4)CC3)[nH]c(=O)c2C1 [42-62] | < 0.05 µM | < 0.01 µM
7 | O=C([C@H](O)c1cccc(-c2ccc(Cl)c(OC(F)(F)F)c2)c1)N1CCc2nc(C3(c4ccccc4)CC3)[nH]c(=O)c2C1 [44-97] | < 0.05 µM | < 0.01 µM
8 | Cc1ccc(-c2cccc([C@@H](O)C(=O)N3CCCc4nc(C5(c6ccccc6)CC5)[nH]c(=O)c4C3)c2)cc1C [49-48] | < 0.05 µM | < 0.01 µM
9 | O=C(C(O)c1cccc(Oc2cccc(C(F)(F)F)c2)c1)N1CCCc2nc(C3(c4cccc(Cl)c4)CC3)[nH]c(=O)c2C1 (centres unmarked) [17-40] | < 0.05 µM | < 0.01 µM
10 | CN(Cc1cccc2ccccc12)C(=O)c1csc(C2(c3nc4c(c(=O)[nH]3)CN(C(=O)[C@H](O)c3cccc(C(F)(F)F)c3)CCC4)CC2)c1 [59-10] | < 0.05 µM | < 0.01 µM
11 | CNc1ccc(-c2cccc(C3(c4nc5c(c(=O)[nH]4)CN(C(=O)[C@H](O)c4cccc(C(F)(F)F)c4)CCC5)CC3)c2)cn1 [42-54] | < 0.05 µM | < 0.01 µM
12 | O=C(C(O)c1cccc(-c2cc(F)cc(Cl)c2)c1)N1CCCc2nc(C3(c4ccccc4)CC3)[nH]c(=O)c2C1 (centres unmarked) [49-4] | < 0.05 µM | < 0.01 µM
13 | Cc1cccc(C(O)C(=O)N2CCCc3nc(C4(c5ccccc5)CC4)[nH]c(=O)c3C2)c1F (centres unmarked) [17-56] | < 0.05 µM | –
14 | O=C(C(O)c1cccc(Oc2ccccc2)c1)N1CCCc2nc(C3(c4cccc(Cl)c4)CC3)[nH]c(=O)c2C1 (centres unmarked) [17-33] | < 0.05 µM | < 0.01 µM
15 | O=C([C@H](O)c1cccc(-c2cccc(OC(F)(F)F)c2)c1)N1CCCc2nc(C3(c4cccc(C5CCCCC5)c4)CC3)[nH]c(=O)c2C1 [52-4] | < 0.05 µM | < 0.01 µM
16 | CC(C)c1csc(C2(c3nc4c(c(=O)[nH]3)CN(C(=O)Cc3cccc(-c5cccc(C(F)(F)F)c5)c3)CCC4)CC2)c1 [18-29] | < 0.05 µM | < 0.01 µM
17 | CC(C)c1cncc(C2(c3nc4c(c(=O)[nH]3)CN(C(=O)[C@H](O)c3cccc(-c5cccc(F)c5)c3)CCC4)CC2)c1 [55-7] | < 0.05 µM | < 0.003 µM
18 | CC(C)c1cccc(C2(c3nc4c(c(=O)[nH]3)CN(C(=O)C(O)c3cccc(Cl)c3F)CC4)CC2)c1 (centres unmarked) [14-110] | < 0.05 µM | < 0.01 µM
19 | CC(=O)N1CCC(c2csc(C3(c4nc5c(c(=O)[nH]4)CN(C(=O)[C@H](O)c4cccc(C(F)(F)F)c4)CCC5)CC3)c2)CC1 [30-13] | < 0.05 µM | –
20 | O=C([C@H](O)c1cccc(C(F)(F)F)c1)N1CCc2nc(C3(c4cc(C5CCCCC5)cs4)CC3)[nH]c(=O)c2C1 [15-4] | < 0.05 µM | < 0.003 µM
21 | O=C(C(O)c1cccc(C2CC2)c1)N1CCCc2nc(C3(c4ccccc4)CC3)[nH]c(=O)c2C1 (centres unmarked) [17-58] | < 0.05 µM | –
22 | CC(C)(C)c1cccc(-c2cccc([C@@H](O)C(=O)N3CCc4nc(C5(c6ccccc6)CC5)[nH]c(=O)c4C3)c2)c1 [44-74] | < 0.05 µM | < 0.003 µM
23 | O=C([C@H](O)c1cccc(-c2cccc(F)c2)c1)N1CCCc2nc(C3(c4cncc(C5CCCCC5)c4)CC3)[nH]c(=O)c2C1 [55-11] | < 0.05 µM | < 0.01 µM
24 | CC(C)(C)c1ccc(-c2cccc(CC(=O)N3CCCc4nc(C5(c6ccccc6)CC5)[nH]c(=O)c4C3)c2)cc1 [17-132] | < 0.05 µM | –
25 | O=C(Cc1cccc(-c2cccc(C(F)(F)F)c2)c1)N1CCCc2nc(C3(c4cccc(-c5csc6ccccc56)c4)CC3)[nH]c(=O)c2C1 [17-125] | < 0.05 µM | < 0.01 µM
26 | O=C(C(O)c1cccc(-c2cccc(C(F)(F)F)c2)c1)N1CCc2nc(C3(c4cccs4)CC3)[nH]c(=O)c2C1 (centres unmarked) [15-6] | < 0.05 µM | < 0.01 µM

Row | Structure (SMILES) | IC50 [1] | IC50 [2]
27 | O=C([C@H](O)c1cccc(-c2cccc(OC(F)(F)F)c2)c1)N1CCCc2nc(C3(c4cccc(Cl)c4)CC3)[nH]c(=O)c2C1 [50-3] | < 0.05 µM | < 0.01 µM
28 | O=C([C@H](O)c1cccc(C(F)(F)F)c1)N1CCCc2nc(C3(c4cc(CCC5CC5)cs4)CC3)[nH]c(=O)c2C1 [30-8] | < 0.05 µM | < 0.01 µM
29 | O=C(Cc1cccc(SC(F)(F)F)c1)N1CCCc2nc(C3(c4ccccc4)CC3)[nH]c(=O)c2C1 [17-26] | < 0.05 µM | < 0.01 µM
30 | Cc1ccc(-c2cccc(C(O)C(=O)N3CCc4nc(C5(c6ccccc6)CC5)[nH]c(=O)c4C3)c2)cc1Cl (centres unmarked) [44-26] | < 0.05 µM | –
31 | O=C(Cc1ccccc1Oc1ccccc1)N1CCCc2nc(C3(c4cccc(Cl)c4)CC3)[nH]c(=O)c2C1 [17-139] | < 0.05 µM | < 0.01 µM
32 | O=C(C(O)c1cccc(-c2cccc(F)c2)c1)N1CCCc2nc(C3(c4cccc(F)c4)CC3)[nH]c(=O)c2C1 (centres unmarked) [17-48] | < 0.05 µM | –
33 | O=C(C(O)c1cccc(S(F)(F)(F)(F)F)c1)N1CCCc2nc(C3(c4cccc(F)c4)CC3)[nH]c(=O)c2C1 (centres unmarked) [17-32] | < 0.05 µM | < 0.01 µM
34 | CC(c1cccc(C2(c3nc4c(c(=O)[nH]3)CN(C(=O)[C@H](O)c3cccc(C(F)(F)F)c3)CCC4)CC2)c1)C(F)(F)F (some centres unmarked) [31-4] | < 0.05 µM | < 0.003 µM
35 | O=C([C@H](O)c1cccc(-c2cccc(F)c2)c1)N1CCCc2nc(C3(c4cccs4)CC3)[nH]c(=O)c2C1 [53-5] | < 0.05 µM | < 0.01 µM
36 | O=C([C@H](O)c1cccc(Cl)c1)N1CCc2nc(C3(c4cncc(C5CCCCC5)c4)CC3)[nH]c(=O)c2C1 [25-2] | < 0.05 µM | < 0.01 µM
37 | O=C([C@H](O)c1cccc(C(F)(F)F)c1)N1CCCc2nc(C3(c4cccc(C(F)(F)F)c4)CC3)[nH]c(=O)c2C1 [17-3] | < 0.05 µM | < 0.003 µM
38 | O=C(C(O)c1cccc(Oc2ccccc2)c1)N1CCCc2nc(C3(c4cccc(F)c4)CC3)[nH]c(=O)c2C1 (centres unmarked) [17-52] | < 0.05 µM | –
39 | O=C(N1CCCc2nc(C3(c4cccc(Cl)c4)CC3)[nH]c(=O)c2C1)C(F)(F)c1cccc(C(F)(F)F)c1 [20-4] | < 0.05 µM | < 0.003 µM
40 | O=C([C@H](O)c1cccc(C(F)(F)F)c1)N1CCCc2nc(C3(c4ccnc(Oc5ccccc5)c4)CC3)[nH]c(=O)c2C1 [19-8] | < 0.05 µM | –
41 | O=C([C@H](O)c1cccc(-c2coc3ccccc23)c1)N1CCCc2nc(C3(c4cccc(Cl)c4)CC3)[nH]c(=O)c2C1 [50-8] | < 0.05 µM | < 0.003 µM
42 | N#Cc1ccc(-c2cccc(C3(c4nc5c(c(=O)[nH]4)CN(C(=O)[C@H](O)c4cccc(C(F)(F)F)c4)CCC5)CC3)c2)cn1 [42-55] | < 0.05 µM | < 0.003 µM
43 | Cc1cc(C)cc(-c2cccc([C@@H](O)C(=O)N3CCCc4nc(C5(c6ccccc6)CC5)[nH]c(=O)c4C3)c2)c1 [49-49] | < 0.05 µM | < 0.01 µM
44 | CC(C)c1cccc(-c2cccc([C@@H](O)C(=O)N3CCc4nc(C5(c6ccccc6)CC5)[nH]c(=O)c4C3)c2)c1 [44-115] | < 0.05 µM | < 0.01 µM
45 | O=C([C@H](O)c1cccc(C(F)(F)F)c1)N1CCCc2nc(C3(c4cccc(-c5ccccc5)c4)CC3)[nH]c(=O)c2C1 [42-16] | < 0.05 µM | < 0.01 µM
46 | O=C(C(O)c1cccc(SC(F)(F)F)c1)N1CCc2nc(C3(c4cccc(F)c4)CC3)[nH]c(=O)c2C1 (centres unmarked) [14-27] | < 0.05 µM | –
47 | O=C([C@H](O)c1cccc(C(F)(F)F)c1)N1CCCc2nc(C3(c4cccc(-c5ccc(CN6CCC(OCc7ccccc7)CC6)cc5)c4)CC3)[nH]c(=O)c2C1 [42-95] | < 0.05 µM | < 0.01 µM
48 | CC(C)c1cncc(C2(c3nc4c(c(=O)[nH]3)CN(C(=O)C(O)c3cccc(-c5cccc(OC(F)(F)F)c5)c3)CCC4)CC2)c1 (centres unmarked) [55-2] | < 0.05 µM | < 0.01 µM
49 | O=C(Cc1cccc(-c2cccc(Cl)c2)c1)N1CCCc2nc(C3(c4cccc(C5CCCCC5)c4)CC3)[nH]c(=O)c2C1 [31-16] | < 0.05 µM | < 0.01 µM
50 | O=C(Cc1cccc(-c2ccc(C(F)(F)F)cc2)c1)N1CCc2nc(C3(c4cccc(Cl)c4)CC3)[nH]c(=O)c2C1 [14-117] | < 0.05 µM | –
51 | O=C([C@H](O)c1cccc(-c2ccc3cnccc3c2)c1)N1CCc2nc(C3(c4ccccc4)CC3)[nH]c(=O)c2C1 [44-89] | < 0.05 µM | –
52 | O=C(C(O)c1cccc(-c2ccccc2)c1)N1CCc2nc(C3(c4ccccc4)CC3)[nH]c(=O)c2C1 (centres unmarked) [44-55] | < 0.05 µM | –
